Results published in patent US10758620B2, “Potentiated antimicrobial agents” (SEPTEOS, priority 2014, dated 2020).
Values after ≈ are worked out from the molar mass of the structure shown. Read-outs that look alike come from different tables or passages of the source.

Tests used:
Staphylococcus = assay: MIC measurement in agar medium (dilution test), Staph; assay type: cell-based; settings: Staphylococcus, read-out: MIC of the amox alone; staphylococci
Excerpt: Inhibitory minimum concentration measurement tests are made in a solid agar medium according to international standards in force (CLSI M7-A9 Jan 12 standards): dispersion of the compounds to be tested in a Mueller Hinton gelose. An adaptation relating to the hydrophobicity of compounds and compositions is however necessary to disperse them in the medium: dilution of the compounds in a solvent. The compounds and compositions incorporated in the agar medium can be diluted beforehand in one or more solvents (Tween® 80 diluted with water, Tween® 80 diluted with […], DMSO diluted with water). The strains are deposited onto the agar surface with a steers apparatus. In the examples, different dissolution methods for products are tested in parallel to circumvent the problems of water/solvent distribution coefficient of the molecules (antimicrobial and potentiator) whereas the bacteria grow only in the aqueous phase. The technical requirement will not intervene in in vivo tests. The same dilution methods can be implemented in a liquid medium (microplates and tubes). The same methodology is implemented with fungi. […] MIC measurement: the minimum inhibitory concentration measurement tests are made in an agar solid medium according to international standards in force (CLSI standards), according to the previously defined protocol. […] The booster contribution as compared with the MIC of the antibiotic alone is expressed in a (MIC ATB)/(MIC ATB+booster) ratio. Thereby, gains are defined: […]

candidas = assay: MIC measurement (dilution test) on yeast strains; assay type: cell-based, Candida; settings: Candida; read-out: MIC of sertaconazole alone
Excerpt: Inhibitory minimum concentration measurement tests are made in a solid agar medium according to international standards in force (CLSI M7-A9 Jan 12 standards): dispersion of the compounds to be tested in a Mueller Hinton gelose. An adaptation relating to the hydrophobicity of compounds and compositions is however necessary to disperse them in the medium: dilution of the compounds in a solvent. The compounds and compositions incorporated in the agar medium can be diluted beforehand in one or more solvents (Tween® 80 diluted with water, Tween® 80 diluted with […], DMSO diluted with water). The strains are deposited onto the agar surface with a steers apparatus. In the examples, different dissolution methods for products are tested in parallel to circumvent the problems of water/solvent distribution coefficient of the molecules (antimicrobial and potentiator) whereas the bacteria grow only in the aqueous phase. The technical requirement will not intervene in in vivo tests. The same dilution methods can be implemented in a liquid medium (microplates and tubes). The same methodology is implemented with fungi. […] MIC measurement: the minimum inhibitory concentration measurement tests are made in an agar solid medium according to international standards in force (CLSI standards), according to the previously defined protocol. […] The booster contribution as compared with the MIC of the antibiotic alone is expressed in a (MIC ATB)/(MIC ATB+booster) ratio. Thereby, gains are defined: […] The yeast strains tested (n=33) belong to the […] albicans, Candida tropicalis, Candida krusei, Candida parapsilosis, Candida glabrata species.

[1] = system: Strain 09003, methicillin resistant S. aureus (MRSA); assay: Resistance test (resistant mutants), Strain 09003; assay type: cell-based; settings: Strain 09003, DMSO, 4 times the MIC, 48 h incubation, combinations 64/100
Experimental: (§1) After 48 h incubation, the presence or absence of colonies likely to be resistant mutants is observed.
(§2) ED control or DMSO=only distilled water or DMSO is added
(§3) Ciprofloxacine DMSO: addition of Ciprofloxacine in DMSO

[2] = system: Strain 10168, methicillin resistant S. aureus (MRSA); assay: Resistance test (resistant mutants), Strain 10168; assay type: cell-based; settings: Strain 10168, DMSO, 4 times the MIC, 48 h incubation, combinations 64/100
Experimental: as §1, §2, §3

Pseudomonas Strain 08131 = assay: Etest, Pseudomonas Strain 08131; assay type: cell-based; settings: Pseudomonas, STRAIN08131, Strain 08131, read-out: MIC
Excerpt: (§4) The corresponding tests are made based on the usual MIC test: the Etest® (Biomerieux) strip is deposited onto the surface of a seeded agar medium in which the booster has been incorporated. This test enables solvent effect risks, that is a possible interaction with the solvent used in vitro, to be minimised.
(§5) The control corresponds to the test made without cineol. A control is made in each solvent tested: distilled water, Tween/water and DMSO.
(§6) ED control=antibiotic alone in distilled water
(§7) DMSO control=antibiotic alone in DMSO
(§8) TE control=antibiotic alone in Tween® 80

Pseudomonas Strain 08132 = assay: Etest, Pseudomonas Strain 08132; assay type: cell-based
Excerpt: as §4, §5, §6, §7, §8

MSSA 8237 = assay: Etest, staphylococci MSSA 8237; assay type: cell-based; settings: MSSA 8237
Excerpt: as §4, §5, §6, §7, §8

[3] = orally, cats; cited from earlier work
[4] = orally, rats; cited from earlier work
E. Coli Strain 08138 = assay: Etest, E. Coli Strain 08138; assay type: cell-based; settings: Escherichia coli, Strain 08138
Excerpt: as §4, §5, §6, §7, §8

E. Coli Strain 8150 = assay: Etest, E. Coli Strain 8150; assay type: cell-based; settings: Escherichia coli, Strain 8150
Excerpt: as §4, §5, §6, §7, §8

MRSA 10178 = assay: Etest, staphylococci MRSA 10178; assay type: cell-based
Excerpt: as §4, §5, §6, §7, §8

[5] = DMSO control = antibiotic alone in DMSO
[6] = ED control = antibiotic alone in distilled water
[7] = Tween water control = antibiotic alone
[8] = Staphylococcus aureus, MSSA, DMSO control = antibiotic alone in DMSO, read-out: MIC
[9] = Staphylococcus aureus, MSSA, ED control = antibiotic alone in distilled water, read-out: MIC
[10] = Staphylococcus aureus, MSSA, Tween water control = antibiotic alone, read-out: MIC

## CC1(C)S[C@@H]2[C@H](NC(=O)[C@H](N)c3ccc(O)cc3)C(=O)N2[C@H]1C(=O)O [amox, amoxicillin, reference compound]
Staphylococcus
  MIC: 0.25 to 32 µg/mL

## Clc1ccc(C(Cn2ccnc2)OCc2csc3c(Cl)cccc23)c(Cl)c1 (centres unmarked) [sertaconazole, reference compound]
candidas
  MIC: 0.06 to 16 µg/mL

## O=C(O)c1cn(C2CC2)c2cc(N3CCNCC3)c(F)cc2c1=O [Ciprofloxacine, ciprofloxacine, reference compound]
[1]
  colonies likely to be resistant mutants: numerous
[1]; listed as ciprofloxacine
  colonies likely to be resistant mutants: many mutants
[2]
  colonies likely to be resistant mutants: invaded
[2]; listed as ciprofloxacine
  colonies likely to be resistant mutants: many mutants

## C[C@@H](O)[C@H]1C(=O)N2C(C(=O)O)=C(S[C@@H]3CN[C@H](C(=O)N(C)C)C3)[C@H](C)[C@H]12 [Meropenem, reference compound]
Pseudomonas Strain 08131; [5]
  MIC: 2 µg/mL (≈ 5.22 µM)
Pseudomonas Strain 08131; [6]
  MIC: 1.5 µg/mL (≈ 3.91 µM)
Pseudomonas Strain 08131; [7]
  MIC: 2 µg/mL (≈ 5.22 µM)
Pseudomonas Strain 08132; [5]
  MIC: 12 µg/mL (≈ 31.3 µM)
Pseudomonas Strain 08132; Pseudomonas, STRAIN08132, ED control = antibiotic alone in distilled water, read-out: MIC
  MIC: 12 µg/mL (≈ 31.3 µM)
Pseudomonas Strain 08132; [7]
  MIC: 12 µg/mL (≈ 31.3 µM)
MSSA 8237; [8]
  MIC: 0.25 µg/mL (≈ 0.652 µM)
MSSA 8237; [9]
  MIC: 0.19 µg/mL (≈ 0.495 µM)
MSSA 8237; [10]
  MIC: 0.25 µg/mL (≈ 0.652 µM)

## Cc1ccc(C(C)C)cc1O [carvacrol]
[3]
  lowest lethal dose: 100 mg/kg
[4]
  lowest lethal dose: 100 mg/kg

## CN(C)c1cc(NC(=O)CNC(C)(C)C)c(O)c2c1C[C@H]1C[C@H]3[C@H](N(C)C)C(O)=C(C(N)=O)C(=O)[C@@]3(O)C(O)=C1C2=O [Tigecycline, reference compound]
E. Coli Strain 08138; [5]
  MIC: 0.38 µg/mL (≈ 0.649 µM)
E. Coli Strain 08138; [6]
  MIC: 0.38 µg/mL (≈ 0.649 µM)
E. Coli Strain 08138; [7]
  MIC: 0.38 µg/mL (≈ 0.649 µM)
E. Coli Strain 8150; [5]
  MIC: 0.19 µg/mL (≈ 0.324 µM)
E. Coli Strain 8150; [6]
  MIC: 0.125 µg/mL (≈ 0.213 µM)
E. Coli Strain 8150; [7]
  MIC: 0.125 µg/mL (≈ 0.213 µM)
MRSA 10178; MRSA 10178, ED control = antibiotic alone in distilled water
  MIC: 0.125 µg/mL (≈ 0.213 µM)
MRSA 10178; MRSA 10178, Tween water control = antibiotic alone
  MIC: 0.125 µg/mL (≈ 0.213 µM)
MRSA 10178; Staphylococcus aureus, MRSA
  MIC: 0.125 µg/mL (≈ 0.213 µM)

## CO[C@@]1(NC(=O)Cc2cccs2)C(=O)N2C(C(=O)O)=C(COC(N)=O)CS[C@@H]21 [Cefoxitine, reference compound]
MRSA 10178; Staphylococcus aureus, MRSA, MRSA 10178, DMSO control = antibiotic alone in DMSO, read-out: MIC
  MIC: 6 µg/mL (≈ 14 µM)
MRSA 10178; Staphylococcus aureus, MRSA, MRSA 10178, ED control = antibiotic alone in distilled water, read-out: MIC
  MIC: 6 µg/mL (≈ 14 µM)
MRSA 10178; Staphylococcus aureus, MRSA, MRSA 10178, Tween water control = antibiotic alone, read-out: MIC
  MIC: 4 µg/mL (≈ 9.36 µM)
MSSA 8237; [8]
  MIC: 6 µg/mL (≈ 14 µM)
MSSA 8237; [9]
  MIC: 6 µg/mL (≈ 14 µM)
MSSA 8237; [10]
  MIC: 6 µg/mL (≈ 14 µM)

## CC1(C)S[C@@H]2[C@H](NC(=O)Cc3ccccc3)C(=O)N2[C@H]1C(=O)O [Penicillin G, reference compound]
MSSA 8237; [5]
  MIC: 1.5 µg/mL (≈ 4.49 µM)
MSSA 8237; [6]
  MIC: 1 µg/mL (≈ 2.99 µM)
MSSA 8237; [7]
  MIC: 0.5 µg/mL (≈ 1.5 µM)
